Tests used:
Procathepsin L = Procathepsin L (Homo sapiens, UniProt P07711); experiment: Inhibition of cathepsin L
Cathepsin B = Cathepsin B (Homo sapiens, UniProt P07858); experiment: Inhibition of cathepsin B
Cathepsin S = Cathepsin S (Homo sapiens, UniProt P25774); experiment: Inhibition of cathepsin S
Cathepsin L2 = biological target: T1, Cathepsin L2 (Homo sapiens, UniProt O60911); experiment: Inhibition of cathepsin L2
T1 sequence (O60911 whole entry): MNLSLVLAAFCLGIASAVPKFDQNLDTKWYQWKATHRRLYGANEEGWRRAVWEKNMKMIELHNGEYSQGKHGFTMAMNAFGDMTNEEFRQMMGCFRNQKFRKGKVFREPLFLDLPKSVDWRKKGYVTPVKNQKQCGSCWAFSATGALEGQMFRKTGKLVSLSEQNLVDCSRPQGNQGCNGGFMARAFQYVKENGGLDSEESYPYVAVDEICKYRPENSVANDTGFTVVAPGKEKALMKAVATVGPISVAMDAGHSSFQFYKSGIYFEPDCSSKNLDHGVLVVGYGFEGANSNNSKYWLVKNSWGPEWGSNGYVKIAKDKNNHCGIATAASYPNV

Cathepsin K = biological target: T2, Cathepsin K (Homo sapiens, UniProt P43235); experiment: Inhibition of cathepsin K
T2 sequence (P43235 whole entry): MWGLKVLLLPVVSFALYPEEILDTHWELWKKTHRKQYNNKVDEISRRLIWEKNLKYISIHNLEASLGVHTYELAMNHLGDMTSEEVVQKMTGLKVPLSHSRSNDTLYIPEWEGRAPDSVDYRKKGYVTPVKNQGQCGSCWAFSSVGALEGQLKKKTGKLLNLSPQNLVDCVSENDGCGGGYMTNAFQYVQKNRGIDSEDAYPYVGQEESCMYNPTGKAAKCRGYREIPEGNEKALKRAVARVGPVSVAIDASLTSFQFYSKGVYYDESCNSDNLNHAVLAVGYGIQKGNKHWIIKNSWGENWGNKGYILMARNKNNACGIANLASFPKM

Procathepsin L, sequence (P07711 whole entry): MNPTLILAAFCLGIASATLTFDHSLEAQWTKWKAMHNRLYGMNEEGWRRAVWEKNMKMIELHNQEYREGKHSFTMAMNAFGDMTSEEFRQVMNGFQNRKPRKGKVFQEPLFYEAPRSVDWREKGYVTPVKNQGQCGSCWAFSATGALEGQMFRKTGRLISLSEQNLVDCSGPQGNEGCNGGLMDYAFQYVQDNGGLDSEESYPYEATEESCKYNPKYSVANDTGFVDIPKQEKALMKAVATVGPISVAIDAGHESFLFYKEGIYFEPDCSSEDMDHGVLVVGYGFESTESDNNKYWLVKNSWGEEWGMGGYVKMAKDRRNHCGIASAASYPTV
Cathepsin S, sequence (P25774 whole entry): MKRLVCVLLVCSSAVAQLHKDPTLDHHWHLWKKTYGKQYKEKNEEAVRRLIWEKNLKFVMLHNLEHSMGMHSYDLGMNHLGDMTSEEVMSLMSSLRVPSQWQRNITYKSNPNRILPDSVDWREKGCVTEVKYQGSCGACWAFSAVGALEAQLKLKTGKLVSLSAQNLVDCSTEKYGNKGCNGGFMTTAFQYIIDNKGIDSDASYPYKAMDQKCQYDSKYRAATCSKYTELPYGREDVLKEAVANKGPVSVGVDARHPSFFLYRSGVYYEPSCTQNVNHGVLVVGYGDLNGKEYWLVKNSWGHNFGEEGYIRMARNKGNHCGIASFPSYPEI

IC50 (Procathepsin L) | IC50 (Cathepsin B) | IC50 (Cathepsin S) | IC50 (Cathepsin L2) | IC50 (Cathepsin K) | SMILES
20 nM | > 10000 nM | 1000 nM | 1000 nM | > 10000 nM | Cc1cc(C(=O)N[C@@H](Cc2cccc(Cl)c2)C(=O)NCC#N)c2cc(C)ccc2c1
316 nM | > 10000 nM | 2510 nM | 6310 nM | 5010 nM | N#CCNC(=O)[C@H](Cc1cccc(Cl)c1)NC(=O)C1CCCCCC1
501 nM | > 10000 nM | 794 nM | 1260 nM | 6310 nM | Cc1cc(C(=O)N[C@@H](Cc2cccc(Cl)c2)C(=O)NCC#N)n(C)n1
398 nM | 10000 nM | 200 nM | 251 nM | 1260 nM | Cc1nc(C)c(C(=O)N[C@@H](Cc2cccc(Cl)c2)C(=O)NCC#N)s1
251 nM | 10000 nM | 3160 nM | 3980 nM | > 10000 nM | N#CCNC(=O)[C@H](Cc1cccc(Cl)c1)NC(=O)c1cccc2ccccc12
79.4 nM | 3980 nM | 200 nM | 200 nM | 6310 nM | N#CCNC(=O)[C@H](Cc1cccc(Cl)c1)NC(=O)c1cccc(Cl)c1
100 nM | > 10000 nM | 3160 nM | 3160 nM | > 10000 nM | N#CCNC(=O)[C@H](Cc1cccc(Cl)c1)NC(=O)c1ccnc2ccccc12
398 nM | > 10000 nM | > 10000 nM | > 10000 nM | > 10000 nM | N#CCNC(=O)[C@H](Cc1cccc(Cl)c1)NC(=O)c1cccc2c1CCCC2
1260 nM | > 10000 nM | 1260 nM | 1260 nM | 2510 nM | Cc1nn(C)cc1C(=O)N[C@@H](Cc1cccc(Cl)c1)C(=O)NCC#N
1260 nM | > 10000 nM | 2510 nM | 6310 nM | > 10000 nM | N#CCNC(=O)[C@H](Cc1cccc(Cl)c1)NC(=O)C1CCCCC1
50.1 nM | 7940 nM | 316 nM | 200 nM | > 10000 nM | Cc1cc(C)cc(C(=O)N[C@@H](Cc2cccc(Cl)c2)C(=O)NCC#N)c1
251 nM | 2510 nM | 631 nM | 1000 nM | 1260 nM | Cc1ccc(C(=O)N[C@@H](Cc2cccc(Cl)c2)C(=O)NCC#N)cc1
79.4 nM | 5010 nM | 1260 nM | 1580 nM | 6310 nM | Cc1ccc(C)c(C(=O)N[C@@H](Cc2cccc(Cl)c2)C(=O)NCC#N)c1
79.4 nM | 2000 nM | 794 nM | 501 nM | 5010 nM | Cc1cc(C(=O)N[C@@H](Cc2cccc(Cl)c2)C(=O)NCC#N)c(C)s1
501 nM | > 10000 nM | 2000 nM | 398 nM | > 10000 nM | N#CCNC(=O)[C@H](Cc1cccc(Cl)c1)NC(=O)C1=CCCCC1
251 nM | 5010 nM | 398 nM | 794 nM | 6310 nM | Cc1cccc(C(=O)N[C@@H](Cc2cccc(Cl)c2)C(=O)NCC#N)c1
316 nM | > 10000 nM | 2000 nM | 3980 nM | > 10000 nM | Cc1cccc(C(=O)N[C@@H](Cc2cccc(Cl)c2)C(=O)NCC#N)c1C
79.4 nM | 5010 nM | 794 nM | 501 nM | 2000 nM | CC(C)c1cc(C(=O)N[C@@H](Cc2cccc(Cl)c2)C(=O)NCC#N)n(C)n1
631 nM | > 10000 nM | 794 nM | 2510 nM | 10000 nM | Cc1nc(C(=O)N[C@@H](Cc2cccc(Cl)c2)C(=O)NCC#N)c(C)o1
63.1 nM | 7940 nM | 794 nM | 501 nM | 5010 nM | CCc1cc(C(=O)N[C@@H](Cc2cccc(Cl)c2)C(=O)NCC#N)n(C)n1
794 nM | > 10000 nM | 1580 nM | 5010 nM | 5010 nM | Cc1ccccc1C(=O)N[C@@H](Cc1cccc(Cl)c1)C(=O)NCC#N

From ChEMBL document CHEMBL1152364, “Dipeptidyl nitrile inhibitors of Cathepsin L” (Bioorg Med Chem Lett, 2009)
